Experiments:
[1] = test system: MOLT-4 (T cell leukemia cell); details: MOLT-4 cell density after 3 days of culture, read from FIG. 2
Protocol: In order to evaluate cytotoxicity of the cyclic phenol sulfide (III) in a human cell line, MOLT-4 (T cell leukemia cell, Riken Gene Bank accession number RCB 0206), was used in the test. The cyclic phenol sulfide (III) was dissolved in a medium (RPMI-1640 containing 10% FCS (fetal calf serum), kanamycin (5,000 U/ml) and streptomycin (5 mg/ml)) to a concentration of 2.5 mM, and the solution was made into 2-fold serial dilutions to prepare cyclic phenol sulfide (III)-containing medium samples having 11 steps of concentration. Each of the cyclic phenol sulfide (III)-containing medium samples was dispensed into wells of a 6-well plate in 2.5 ml, a MOLT-4 culture broth of 2×10^5 cells/ml was dispensed into the resulting wells in 2.5 ml, the cells were cultured at 37° C. for 3 days in a moist incubator containing 5% CO2, and then the cell density was measured using Celltac MEK-5254 (manufactured by NIHON KOHDEN).

Protocol for HIV-1: The cyclic phenol sulfide (III) was dissolved in the medium used in Example 8 to a concentration of 2.5 mM, and the solution was made into 2-fold serial dilutions to prepare cyclic phenol sulfide (III)-containing medium samples having 11 steps of concentration. Each of the cyclic phenol sulfide (III)-containing medium samples was dispensed into wells of a 6-well plate in 2.5 ml, a culture broth containing 1.64×10^5 cells/ml of MOLT-4 or 1.82×10^4 cells/ml of HIV-1-infected MOLT-4 was dispensed into the resulting wells in 2.5 ml, the cells were cultured at 37° C. for 3 days in a moist incubator containing 5% CO2, the resulting cell density was measured using Celltac MEK-5254 (manufactured by NIHON KOHDEN), and then a portion of the medium containing 10^6 cells was taken out to purify DNA. The number of HIV-1 DNA contained in 500 ng of the cell DNA was determined by competitive nested PCR.
Firstly, 500 ng of each cell DNA sample was mixed with 1 μM of the primers JA9 and JA12, 0.2 mM dNTP, 50 mM KCl, 10 mM Tris-HCl (pH 8.3), 4 mM MgCl2, 5,000 copies of the competitor and 2 units of Taq DNA polymerase manufactured by Roche), and the total volume was adjusted to 100 μl with Milli-Q water. […]

O=S(=O)([O-])c1cc2c(O)c(c1)Sc1cc(S(=O)(=O)[O-])cc(c1O)Sc1cc(S(=O)(=O)[O-])cc(c1O)Sc1cc(S(=O)(=O)[O-])cc(c1O)S2.[Na+].[Na+].[Na+].[Na+] [cyclic phenol sulfide (III), sodium salt of 25,26,27,28-tetrahydroxy-2,8,14,20-tetrathia[19.3.1.1^3,71^9,131^15,19]octacosa-1(25),3,5,7(28),9,11,13(27),15,17,19(26),21,23-dodecaene-5,11,17,23-tetrasulfonic acid]
IC50 (HIV-1; HIV-1 DNA concentration after 3 days of infection, MOLT-4 / HIV-1-infected MOLT-4 co-culture, read from FIG. 2): 40 µM | therapeutic ratio (=CC50/IC50) (HIV-1; from Example 8 and Example 9): 18 | CC50 [1]: 700 µM

From patent publication US6355671B1, “SULFONATED DERIVATIVES OF CYCLIC PHENOL SULFIDES, PROCESS FOR THE PREPARATION THEREOF, […] […] […] PHENOL SULFIDES, METHODS FOR […] RECOVERY […], AND DRUG COMPOSITIONS CONTAINING THE SULFIDES” (Cosmo Research Institute, priority 1997, dated 2002)
